Data: patent publication US8445491B2, “Wnt protein signalling inhibitors” (The Board of Regents of the University of Texas System, priority 2008, dated 2013)

Tests used:
[1] = system: Wnt/β-catenin pathway; experiment: luciferase-based reporter assay (SuperTopFlash) measuring Wnt/β-catenin-dependent transcriptional response, L-Wnt-STF cells; assay type: cell-based; conditions: Mus musculus
Procedure: Tables 1 and 2 provides further examples of such compounds, as well as their activities as determined by a luciferase-based reporter assay that measures Wnt/β-catenin-dependent transcriptional response.
For the “primary screen” and “dose-dependent test,” ˜5,000 L-Wnt-STF cells were seeded into each well of a white opaque 384 well plate and individual compounds from the UTSW chemical library added 24 hrs later to each well at a final concentration of 2.5 μM (primary screen) or otherwise indicated concentrations. Luciferase activities were measured 24 hrs later. To identify FL inhibitors and compounds that blocked protein secretion, L-cells were transiently transfected with CMV-FL and CMV-GL constructs and immediately incubated with compounds. Culture medium and cell lysates were analyzed for GL and FL activities, respectively, after 24 hrs. For the “exogenous Wnt test,” Wnt3A-containing conditioned medium, prepared following the protocol provided ATCC, was applied to HEK293 cells transiently transfected with STF and control reporters. For Hedgehog and Notch tests, NIH-3T3 cells or L-cells, respectively, were transiently transfected with indicated reporter constructs and immediately incubated with compounds. Luciferase activities were measured 24 hrs later. The “Wnt secretion test” was performed in L-cells transiently transfected with the Wnt-GL expression construct and immediately incubated with compounds. Culture medium and cellular lysate were analyzed 48 hrs later for GL activity. Assays used to calculate IC50's for compounds were performed as before in L-Wnt-STF cells.
A brief overview of the screen is as follows: mouse L-cells that stably harbor a well-characterized Wnt/β-catenin pathway-responsive firefly luciferase (FL) reporter plasmid (SuperTopFlash or STF), a control reporter, and an expression construct encoding the Wnt protein, Wnt3A, were exposed to individual compounds for two days prior to measurement of reporter activities. Chemicals that altered FL but not control reporter activity were selected for further testing (FIG. 1; FIG. 8). The screening strategy allows for identification of compounds that either potentially increase or decrease Wnt/β-catenin pathway activity.

[2] = system: caudal fin regeneration in zebrafish; experiment: caudal fin regeneration assay in zebrafish; assay type: in vivo; conditions: zebrafish, FIG. 25, concentration not given
Procedure: FIG. 25. […] Arrows indicate the points of resection.
6 month-old zebrafish were incubated 8 or 14 days at 28.5° C. in aquarium water supplemented with 10 μM IWR or in 0.1% DMSO as a control. Fish were fed standard diet, and solutions were changed daily. At the end of the exposure, zebrafish were incubated in 1 mM BrdU in aquarium water for 2 hrs at room temperature, then washed several times in aquarium water, anesthetized with 0.1% Tricaine, and fixed in 4% paraformaldehyde for 48 hrs at 4° C. The intestine was dissected out, dehydrated, paraffin embedded and sectioned at […] intervals. Sections were stained with Hematoxylin and Eosin or processed for BrdU immunohistochemistry as described (Shepard et al., 2005). Sections from 8 animals each from IWR and DMSO groups were independently scored by four blinded observers. The total number of intestinal folds and total number of BrdU-positive nuclei in the mid and distal sections of the intestine were counted from each section. For caudal fin regeneration assays, zebrafish, 3-6 months of age, were anaesthetized in 0.2% Tricaine and half of the fin was resected using a razor blade to remove Amputees were reared at 31° C. in tanks containing either 300 ml of water with DMSO or IWR (10 μM). Water and compounds were replenished daily for a total assay period of 4 days.

[3] = Table 1, luciferase reporter of Wnt/β-catenin-dependent transcriptional response
[4] = Table 2 (50-52, IWR-8 to IWR-14)

SMILES	EC50 [1, 3] [µM]	also measured
Cc1ccc2cccnc2c1NC(=O)c1ccc(N2C(=O)[C@@H]3[C@@H]4C=CC(C4)[C@@H]3C2=O)cc1 [Compound 3]	0.8	
O=C(NC1CCCc2cccnc21)c1ccc(N2C(=O)[C@@H]3[C@@H]4C=CC(C4)[C@@H]3C2=O)cc1 (stereo partly shown) [Compound 4]	10	
COc1ccccc1NC(=O)c1ccc(N2C(=O)[C@@H]3[C@@H]4C=CC(C4)[C@@H]3C2=O)cc1 [Compound 5]	1	
O=C(Nc1ccccc1)c1ccc(N2C(=O)[C@@H]3[C@@H]4C=CC(C4)[C@@H]3C2=O)cc1 [Compound 6]	> 25	
O=C(Nc1ccccc1F)c1ccc(N2C(=O)[C@@H]3[C@@H]4C=CC(C4)[C@@H]3C2=O)cc1 [Compound 7]	> 25	
O=C(Nc1ccccc1Cl)c1ccc(N2C(=O)[C@@H]3[C@@H]4C=CC(C4)[C@@H]3C2=O)cc1 [Compound 8]	> 25	
O=C(Nc1ccccc1Br)c1ccc(N2C(=O)[C@@H]3[C@@H]4C=CC(C4)[C@@H]3C2=O)cc1 [Compound 9]	> 25	
O=C(Nc1cccc(F)c1)c1ccc(N2C(=O)[C@@H]3[C@@H]4C=CC(C4)[C@@H]3C2=O)cc1 [Compound 10]	> 25	
O=C(Nc1cccc(Cl)c1)c1ccc(N2C(=O)[C@@H]3[C@@H]4C=CC(C4)[C@@H]3C2=O)cc1 [Compound 11]	> 25	
O=C(Nc1cccc(Br)c1)c1ccc(N2C(=O)[C@@H]3[C@@H]4C=CC(C4)[C@@H]3C2=O)cc1 [Compound 12]	9	
O=C(Nc1ccc(F)cc1)c1ccc(N2C(=O)[C@@H]3[C@@H]4C=CC(C4)[C@@H]3C2=O)cc1 [Compound 13]	4	inhibition of fin regeneration [2]: partial inhibition
O=C(Nc1ccc(Cl)cc1)c1ccc(N2C(=O)[C@@H]3[C@@H]4C=CC(C4)[C@@H]3C2=O)cc1 [Compound 14]	3	
O=C(Nc1ccc(Br)cc1)c1ccc(N2C(=O)[C@@H]3[C@@H]4C=CC(C4)[C@@H]3C2=O)cc1 [Compound 15]	1	
O=C(Nc1cccc(F)c1F)c1ccc(N2C(=O)[C@@H]3[C@@H]4C=CC(C4)[C@@H]3C2=O)cc1 [Compound 16]	> 25	
O=C(Nc1ccc(F)cc1F)c1ccc(N2C(=O)[C@@H]3[C@@H]4C=CC(C4)[C@@H]3C2=O)cc1 [Compound 17]	9	inhibition of fin regeneration [2]: only retarded the growth of the tail fin
O=C(Nc1ccc(Cl)cc1Cl)c1ccc(N2C(=O)[C@@H]3[C@@H]4C=CC(C4)[C@@H]3C2=O)cc1 [Compound 18]	10	
O=C(Nc1ccc(Br)cc1Br)c1ccc(N2C(=O)[C@@H]3[C@@H]4C=CC(C4)[C@@H]3C2=O)cc1 [Compound 19]	> 25	
O=C(Nc1cc(F)ccc1F)c1ccc(N2C(=O)[C@@H]3[C@@H]4C=CC(C4)[C@@H]3C2=O)cc1 [Compound 20]	> 25	
O=C(Nc1c(F)cccc1F)c1ccc(N2C(=O)[C@@H]3[C@@H]4C=CC(C4)[C@@H]3C2=O)cc1 [Compound 21]	> 25	
O=C(Nc1ccc(F)c(F)c1)c1ccc(N2C(=O)[C@@H]3[C@@H]4C=CC(C4)[C@@H]3C2=O)cc1 [Compound 22]	3	
O=C(Nc1ccc(Cl)c(Cl)c1)c1ccc(N2C(=O)[C@@H]3[C@@H]4C=CC(C4)[C@@H]3C2=O)cc1 [Compound 23]	5	

SMILES	EC50 [1, 3] [µM]	also measured
O=C(Nc1ccc(Br)c(Br)c1)c1ccc(N2C(=O)[C@@H]3[C@@H]4C=CC(C4)[C@@H]3C2=O)cc1 [Compound 24]	10	
O=C(Nc1cc(F)cc(F)c1)c1ccc(N2C(=O)[C@@H]3[C@@H]4C=CC(C4)[C@@H]3C2=O)cc1 [Compound 25]	> 25	
O=C(Nc1ccccc1C(F)(F)F)c1ccc(N2C(=O)[C@@H]3[C@@H]4C=CC(C4)[C@@H]3C2=O)cc1 [Compound 26]	> 25	
O=C(Nc1cccc(C(F)(F)F)c1)c1ccc(N2C(=O)[C@@H]3[C@@H]4C=CC(C4)[C@@H]3C2=O)cc1 [Compound 27]	20	
O=C(Nc1ccc(C(F)(F)F)cc1)c1ccc(N2C(=O)[C@@H]3[C@@H]4C=CC(C4)[C@@H]3C2=O)cc1 [Compound 28]	> 25	
O=C(NCc1ccccc1)c1ccc(N2C(=O)[C@@H]3[C@@H]4C=CC(C4)[C@@H]3C2=O)cc1 [Compound 29]	20	
O=C(NCc1ccccn1)c1ccc(N2C(=O)[C@@H]3[C@@H]4C=CC(C4)[C@@H]3C2=O)cc1 [Compound 30]	> 25	
O=C(NCc1cccnc1)c1ccc(N2C(=O)[C@@H]3[C@@H]4C=CC(C4)[C@@H]3C2=O)cc1 [Compound 31]	> 25	
O=C(NCc1ccncc1)c1ccc(N2C(=O)[C@@H]3[C@@H]4C=CC(C4)[C@@H]3C2=O)cc1 [Compound 32]	10	
O=C(NC1CCCCC1)c1ccc(N2C(=O)[C@@H]3[C@@H]4C=CC(C4)[C@@H]3C2=O)cc1 [Compound 35]	> 25	
CN(C(=O)c1ccc(N2C(=O)[C@@H]3[C@@H]4C=CC(C4)[C@@H]3C2=O)cc1)c1cccc2cccnc12 [Compound 50]		EC50 [1, 4]: > 25 µM
O=C(Nc1cccc2cccnc12)c1ccc(N2C(=O)[C@@H]3[C@H]4C=CC(C4)[C@@H]3C2=O)cc1 [Compound 51]		EC50 [1, 4]: 5 µM
O=C(Nc1cccc2cccnc12)c1ccc(N2C(=O)[C@@H]3[C@@H]4CCC(C4)[C@@H]3C2=O)cc1 [Compound 52]		EC50 [1, 4]: 0.2 µM
O=C1[C@@H]2[C@@H]3C=CC(C3)[C@@H]2C(=O)N1c1ccc(S(=O)(=O)Nc2cccc3cccnc23)cc1 [IWR-8]		EC50 [1, 4]: > 25 µM
O=C1[C@@H]2[C@@H]3C=CC(C3)[C@@H]2C(=O)N1c1ccc(S(=O)(=O)Nc2ccccc2Br)cc1 [IWR-9]		EC50 [1, 4]: > 25 µM
O=C1[C@@H]2[C@@H]3C=CC(C3)[C@@H]2C(=O)N1c1ccc(S(=O)(=O)Nc2cccc(Br)c2)cc1 [IWR-10]		EC50 [1, 4]: 2 µM
O=C1[C@@H]2[C@@H]3C=CC(C3)[C@@H]2C(=O)N1c1ccc(S(=O)(=O)Nc2ccc(Br)cc2)cc1 [IWR-11]		EC50 [1, 4]: 3 µM
COc1ccccc1NS(=O)(=O)c1ccc(N2C(=O)[C@@H]3[C@@H]4C=CC(C4)[C@@H]3C2=O)cc1 [IWR-12]		EC50 [1, 4]: 10 µM
COc1cccc(NS(=O)(=O)c2ccc(N3C(=O)[C@@H]4[C@@H]5C=CC(C5)[C@@H]4C3=O)cc2)c1 [IWR-13]		EC50 [1, 4]: 6 µM
COc1ccc(NS(=O)(=O)c2ccc(N3C(=O)[C@@H]4[C@@H]5C=CC(C5)[C@@H]4C3=O)cc2)cc1 [IWR-14]		EC50 [1, 4]: 10 µM
